Data reported in patent US6737383B1, “Herbicidal oxadiazolidines” (priority 1999, dated 2004).

Tests used:
[1] = system: bedstraw; experiment: Test B pre/postemergence bedstraw; assay type: in vivo, Galium aparine
Outline: (§1)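 Test chemicals in a non-phytotoxic solvent mixture with surfactant were sprayed preemergence onto planted seeds and postemergence onto plants 2 to 18 cm tall (1- to 4-leaf stage). After twelve to sixteen days in a greenhouse, injury was visually rated against untreated controls from 0 (no effect) to 10 (complete control).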

[2] = system: blackgrass; experiment: Test B pre/postemergence blackgrass; assay type: in vivo, Alopecurus myosuroides
Outline: as §1

[3] = system: surinam grass; experiment: Test B pre/postemergence surinam grass; assay type: in vivo, Brachiaria decumbens
Outline: as §1

[4] = system: corn; experiment: Test B pre/postemergence corn; assay type: in vivo, Zea mays
Outline: as §1

[5] = system: crabgrass; experiment: Test B pre/postemergence crabgrass; assay type: in vivo, Digitaria sanguinalis
Outline: as §1

[6] = system: giant foxtail; experiment: Test B pre/postemergence giant foxtail; assay type: in vivo, Setaria faberii
Outline: as §1

[7] = system: rape; experiment: Test B pre/postemergence rape; assay type: in vivo, Brassica napus
Outline: as §1

[8] = system: sugar beet; experiment: Test B pre/postemergence sugar beet; assay type: in vivo, Beta vulgaris
Outline: as §1

[9] = system: velvetleaf; experiment: Test B pre/postemergence velvetleaf; assay type: in vivo, Abutilon theophrasti
Outline: as §1

[10] = system: wheat; experiment: Test B pre/postemergence wheat; assay type: in vivo, Triticum aestivum
Outline: as §1

[11] = system: wild oat; experiment: Test B pre/postemergence wild oat; assay type: in vivo, Avena fatua
Outline: as §1

[12] = system: purple nutsedge; experiment: Test B pre/postemergence purple nutsedge; assay type: in vivo, Cyperus rotundus
Outline: as §1

[13] = system: rice; experiment: Test B flood test rice; assay type: in vivo, Oryza sativa
Outline: (§2)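 Flood test on plants grown to the 2-leaf stage; treated plants kept in greenhouse twelve to sixteen days, then visually rated against controls on a 0 (no effect) to 10 (complete control) scale.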

[14] = system: smallflower flatsedge; experiment: Test B flood test smallflower flatsedge; assay type: in vivo, Cyperus difformis
Outline: as §2

[15] = system: duck salad; experiment: Test B flood test duck salad; assay type: in vivo, Heteranthera limosa
Outline: as §2

[16] = system: bamyardgrass; experiment: Test B flood test barnyardgrass; assay type: in vivo, Echinochloa crus-galli
Outline: as §2

[17] = Preemergence, Rate 62 g/ha, scale of 0 to 10 where 0 is no effect and 10 is complete control
[18] = Preemergence, Rate 125 g/ha, 0 is no effect, 10 is complete control
[19] = Preemergence, Rate 250 g/ha, scale 0 to 10, 0 is no effect, 10 is complete control
[20] = Preemergence, Rate 500 g/ha, scale of 0 to 10 where 0 is no effect and 10 is complete control
[21] = Rate 62 g/ha, Postemergence, scale of 0 to 10 where 0 is no effect and 10 is complete control
[22] = Rate 125 g/ha, Postemergence, scale 0 to 10
[23] = Rate 500 g/ha, Postemergence, scale 0 to 10
[24] = Rate 62 g/ha, headed Pre-emergence (flood test species), scale 0 to 10 (0 no effect, 10 complete control)
[25] = Rate 125 g/ha, Pre-emergence, flood test species, scale 0 to 10 where 0 is no effect and 10 is complete control
[26] = Rate 250 g/ha, Pre-emergence, flood-test species, scale 0 to 10, 0 is no effect, 10 is complete control
[27] = Rate 500 g/ha, headed Pre-emergence (flood test species), scale 0 to 10 (0 no effect, 10 complete control)

Cc1nc(C)c(-n2c(=O)on(C(=O)N(c3ccc(F)cc3)C(C)C)c2=O)s1 [Compound 198]
0: Bedstraw plant response rating [1, 17] | Bedstraw plant response rating (0 to 10 scale) [1, 18] | Bedstraw plant response rating [1, 19] | Plant response rating, Bedstraw [1, 20] | Bedstraw plant response rating [1, 21] | Bedstraw plant response rating [1, 22] | Plant response rating (0 to 10; 0 is no effect, 10 is complete control), Bedstraw ([1]; Rate 250 g/ha, Postemergence) | Blackgrass plant response rating [2, 17] | Blackgrass plant response rating (0 to 10 scale) [2, 18] | Blackgrass plant response rating [2, 19] | Plant response rating, Blackgrass [2, 20] | Blackgrass plant response rating [2, 21] | Blackgrass plant response rating [2, 22] | Plant response rating (0 to 10; 0 is no effect, 10 is complete control), Blackgrass ([2]; Rate 250 g/ha, Postemergence) | Blackgrass plant response rating [2, 23] | B. signalgrass plant response rating [3, 17] | B. signalgrass plant response rating (0 to 10 scale) [3, 18] | B. signalgrass plant response rating [3, 19] | Plant response rating, B. signalgrass [3, 20] | B. signalgrass plant response rating [3, 21] | B. signalgrass plant response rating ([3]; Rate 125 g/ha, Postemergence, scale 0 (no effect) to 10 (complete control)) | Plant response rating, B. signalgrass ([3]; Rate 250 g/ha, Postemergence, scale 0 to 10, 0 is no effect, 10 is complete control) | B. signalgrass plant response rating ([3]; Rate 500 g/ha, Postemergence, scale 0 to 10, 0 no effect, 10 complete control) | Corn plant response rating [4, 17] | Corn plant response rating (0 to 10 scale) [4, 18] | Corn plant response rating [4, 19] | Plant response rating, Corn [4, 20] | Corn plant response rating [4, 21] | Corn plant response rating [4, 22] | Plant response rating (0 to 10; 0 is no effect, 10 is complete control), Corn ([4]; Rate 250 g/ha, Postemergence) | Corn plant response rating [4, 23] | Crabgrass plant response rating [5, 17] | Crabgrass plant response rating (0 to 10 scale) [5, 18] | Crabgrass plant response rating [5, 19] | Plant response rating, Crabgrass [5, 20] | Crabgrass plant response rating [5, 21] | Crabgrass plant response rating [5, 22] | Plant response rating (0 to 10; 0 is no effect, 10 is complete control), Crabgrass ([5]; Rate 250 g/ha, Postemergence) | Crabgrass plant response rating [5, 23] | Giant foxtail plant response rating [6, 17] | Giant foxtail plant response rating (0 to 10 scale) [6, 18] | Giant foxtail plant response rating [6, 19] | Giant foxtail plant response rating [6, 21] | Giant foxtail plant response rating [6, 22] | Plant response rating (0 to 10; 0 is no effect, 10 is complete control), Giant foxtail ([6]; Rate 250 g/ha, Postemergence) | Giant foxtail plant response rating [6, 23] | Rape plant response rating [7, 17] | Rape plant response rating (0 to 10 scale) [7, 18] | Rape plant response rating [7, 19] | Plant response rating, Rape [7, 20] | Rape plant response rating [7, 21] | Rape plant response rating [7, 22] | Plant response rating (0 to 10; 0 is no effect, 10 is complete control), Rape ([7]; Rate 250 g/ha, Postemergence) | Rape plant response rating [7, 23] | Sugarbeets plant response rating [8, 17] | Sugarbeets plant response rating (0 to 10 scale) [8, 18] | Sugarbeets plant response rating [8, 19] | Plant response rating, Sugarbeets [8, 20] | Sugarbeets plant response rating [8, 21] | Sugarbeets plant response rating [8, 22] | Plant response rating (0 to 10; 0 is no effect, 10 is complete control), Sugarbeets ([8]; Rate 250 g/ha, Postemergence) | Sugarbeets plant response rating [8, 23] | Velvetleaf plant response rating [9, 17] | Velvetleaf plant response rating [9, 19] | Plant response rating, Velvetleaf [9, 20] | Velvetleaf plant response rating [9, 21] | Velvetleaf plant response rating [9, 22] | Plant response rating (0 to 10; 0 is no effect, 10 is complete control), Velvetleaf ([9]; Rate 250 g/ha, Postemergence) | Wheat plant response rating [10, 17] | Wheat plant response rating [10, 19] | Plant response rating, Wheat [10, 20] | Wheat plant response rating [10, 21] | Wheat plant response rating [10, 22] | Plant response rating (0 to 10; 0 is no effect, 10 is complete control), Wheat ([10]; Rate 250 g/ha, Postemergence) | Wild oats plant response rating [11, 17] | Wild oats plant response rating [11, 19] | Plant response rating, Wild oats [11, 20] | Wild oats plant response rating [11, 21] | Wild oats plant response rating [11, 22] | Plant response rating (0 to 10; 0 is no effect, 10 is complete control), Wild oats ([11]; Rate 250 g/ha, Postemergence) | Nutsedge plant response rating [12, 17] | Nutsedge plant response rating (0 to 10 scale) [12, 18] | Nutsedge plant response rating [12, 19] | Plant response rating, Nutsedge [12, 20] | Nutsedge plant response rating [12, 21] | Nutsedge plant response rating [12, 22] | Plant response rating (0 to 10; 0 is no effect, 10 is complete control), Nutsedge ([12]; Rate 250 g/ha, Postemergence) | Nutsedge plant response rating [12, 23] | Rice plant response rating [13, 24] | Rice plant response rating [13, 25] | Rice plant response rating [13, 26] | Plant response rating, Rice [13, 27] | S. Flatsedge plant response rating [14, 24] | S. Flatsedge plant response rating [14, 25] | S. Flatsedge plant response rating [14, 26] | S. Flatsedge plant response rating ([14]; Rate 500 g/ha, Pre-emergence, flood test species, scale 0 to 10 (0 no effect, 10 complete control)) | Ducksalad plant response rating [15, 24] | Ducksalad plant response rating [15, 25] | Ducksalad plant response rating [15, 26] | Plant response rating, Ducksalad [15, 27] | Barnyardgrass plant response rating [16, 24] | Barnyardgrass plant response rating [16, 25] | Barnyardgrass plant response rating [16, 26] | Plant response rating, Barnyardgrass [16, 27]
3: Plant response rating, Giant foxtail [6, 20]
